Patent publication US6369089B1, “Interheteroaryl 7-oxabicyclic [2.2.1]heptane oxazoles as prostaglandin F2α antagonists” (Allergan Sales, Inc., priority 2000, dated 2002)

Biological target: T1, human FP receptor (Homo sapiens, UniProt P43088)
T1 construct: expressed in transfected cells
Assay: Ca2+ signaling, antagonism of 17-phenyl PGF2α response in HEK cells stably transfected with the human FP receptor
Type: cell-based
Protocol: HEK cells stably transfected with the human FP receptor were removed from the culture flasks by approximately 1 min treatment with trypsin 0.05%/0.53 mM EDTA in HBSS (Gibco, Grand Island, N.Y.) at 37° C. Proteolytic activity was arrested by adding 5 ml of 10% fetal bovine serum in DMEM. The cells were consecutively washed in Hank's BSS and medium containing 140 mM NaCl, […], 1 mM MgCl2, 1.5 mM CaCl2, 10 mM HEPES: TRIS, 5 mM glucose, 5 mM Na pyruvate, 0.1% bovine serum albumin at pH 7.4: centrifugation for the washes was performed for 15 minutes at 200 g at room temperature. Cells were counted, resuspended in the above medium and incubated with 2×10^−6 M Fura 2/acetoxymethyl ester in a shaking water bath for 30 minutes at 37° C. The cells were subsequently washed in medium as above and resuspended at a concentration of 2×10^6 cells ml^−1. Aliquots of 0.5 ml cell suspension were then added to autocap microtubes to provide 10^6 cells per experimental determination of intracellular free Ca^2+ concentration ([Ca^2+]i).
Fluorescence was measured in a Perkin-Elmer LS-5 fluorescence spectrophotometer at excitation and emission wavelengths of 340 and 492 nm, respectively, with both slits at 10 nm. […]

T1 sequence (P43088 whole entry): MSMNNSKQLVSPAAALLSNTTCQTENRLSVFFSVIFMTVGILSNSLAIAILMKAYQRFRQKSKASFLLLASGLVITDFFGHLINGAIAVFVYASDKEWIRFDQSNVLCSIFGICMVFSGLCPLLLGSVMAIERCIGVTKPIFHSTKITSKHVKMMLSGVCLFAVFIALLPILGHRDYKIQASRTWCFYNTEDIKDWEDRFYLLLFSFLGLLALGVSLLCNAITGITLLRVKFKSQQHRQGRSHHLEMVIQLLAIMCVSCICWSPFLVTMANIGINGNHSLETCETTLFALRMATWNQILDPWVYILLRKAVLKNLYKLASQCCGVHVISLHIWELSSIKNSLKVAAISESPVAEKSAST

## COC(=O)CCc1ccccc1CC1C2CCC(O2)C1c1nc(C(=O)NCCCCC2CCCCC2)co1 (stereo not shown)
  PGF2α antagonist activity (comparison in words): much less active than the corresponding acid
